# Reference: ChEMBL document CHEMBL1806377, “Synthesis and evaluation of a radioiodinated trisaccharide derivative as a synthetic substrate for a sensitive N-acetylglucosaminyltransferase V radioassay” (Bioorg Med Chem, 2011)
# Assays:
# Conditions in all cases: tested as the 125I-labelled form
# [1] = target: T1, Alpha-1,6-mannosylglycoprotein 6-beta-N-acetylglucosaminyltransferase A (Rattus norvegicus) (UniProt Q08834); test: Activity at Wistar rat brain GnT-V assessed per mg of protein after 4 hrs by radio HPLC analysis
# T1 sequence (whole entry): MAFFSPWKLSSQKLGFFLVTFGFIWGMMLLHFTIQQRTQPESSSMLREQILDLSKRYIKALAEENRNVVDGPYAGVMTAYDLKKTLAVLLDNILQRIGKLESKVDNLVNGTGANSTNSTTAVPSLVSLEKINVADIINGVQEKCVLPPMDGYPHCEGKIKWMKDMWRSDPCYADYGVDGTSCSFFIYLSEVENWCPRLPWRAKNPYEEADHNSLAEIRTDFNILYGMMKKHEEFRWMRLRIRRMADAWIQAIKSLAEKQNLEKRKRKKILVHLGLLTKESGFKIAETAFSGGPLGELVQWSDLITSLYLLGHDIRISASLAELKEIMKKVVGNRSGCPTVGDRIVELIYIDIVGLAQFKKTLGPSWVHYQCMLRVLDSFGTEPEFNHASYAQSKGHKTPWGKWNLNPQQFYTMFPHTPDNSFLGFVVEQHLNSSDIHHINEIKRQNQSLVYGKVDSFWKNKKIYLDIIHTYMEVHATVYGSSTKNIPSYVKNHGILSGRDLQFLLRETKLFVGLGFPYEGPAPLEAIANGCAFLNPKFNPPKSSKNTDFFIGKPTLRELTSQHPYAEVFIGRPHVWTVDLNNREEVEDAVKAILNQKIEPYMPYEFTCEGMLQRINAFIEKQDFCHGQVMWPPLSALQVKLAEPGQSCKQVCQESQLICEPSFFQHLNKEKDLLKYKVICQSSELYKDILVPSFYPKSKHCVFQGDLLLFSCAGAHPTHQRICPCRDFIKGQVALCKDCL
# [2] = target: T1, Alpha-1,6-mannosylglycoprotein 6-beta-N-acetylglucosaminyltransferase A (Rattus norvegicus); test: Activity at Wistar rat kidney GnT-V assessed per mg of protein after 4 hrs by radio HPLC analysis
# [3] = target: T1, Alpha-1,6-mannosylglycoprotein 6-beta-N-acetylglucosaminyltransferase A (Rattus norvegicus); test: Activity at Wistar rat serum GnT-V assessed per mg of protein after 4 hrs by radio HPLC analysis
# [4] = target: T1, Alpha-1,6-mannosylglycoprotein 6-beta-N-acetylglucosaminyltransferase A (Rattus norvegicus); test: Activity at Wistar rat lung GnT-V assessed per mg of protein after 4 hrs by radio HPLC analysis
# [5] = target: T1, Alpha-1,6-mannosylglycoprotein 6-beta-N-acetylglucosaminyltransferase A (Rattus norvegicus); test: Activity at Wistar rat heart GnT-V assessed per mg of protein after 4 hrs by radio HPLC analysis
# [6] = target: T1, Alpha-1,6-mannosylglycoprotein 6-beta-N-acetylglucosaminyltransferase A (Rattus norvegicus); test: Activity at Wistar rat liver GnT-V assessed per mg of protein after 4 hrs by radio HPLC analysis
# [7] = target: T1, Alpha-1,6-mannosylglycoprotein 6-beta-N-acetylglucosaminyltransferase A (Rattus norvegicus); test: Activity at Wistar rat intestine GnT-V assessed per mg of protein after 4 hrs by radio HPLC analysis
# [8] = target: T1, Alpha-1,6-mannosylglycoprotein 6-beta-N-acetylglucosaminyltransferase A (Rattus norvegicus); test: Activity at Wistar rat stomach GnT-V assessed per mg of protein after 4 hrs by radio HPLC analysis
# [9] = target: T1, Alpha-1,6-mannosylglycoprotein 6-beta-N-acetylglucosaminyltransferase A (Rattus norvegicus); test: Activity at Wistar rat spleen GnT-V assessed per mg of protein after 4 hrs by radio HPLC analysis
compound,measurement,setting,value
CC(=O)N[C@H]1[C@H](O[C@@H]2[C@@H](OC[C@H]3O[C@@H](OCCc4ccc(I)cc4)[C@H](O)[C@@H](O)[C@@H]3O)O[C@H](CO)[C@@H](O)[C@@H]2O)O[C@H](CO)[C@@H](O)[C@@H]1O,Activity,[1],261 pmol/h
same,Activity,[2],671 pmol/h
same,Activity,[3],1280 pmol/h
same,Activity,[4],179 pmol/h
same,Activity,[5],31 pmol/h
same,Activity,[6],48 pmol/h
same,Activity,[7],774 pmol/h
same,Activity,[8],116 pmol/h
same,Activity,[9],244 pmol/h
